Patent publication US20210198277A1, “AMINE-SUBSTITUTED ARYL OR HETEROARYL COMPOUNDS” (Epizyme, Inc., priority 2016, published 2021)

Target: T1, EHMT1 (Homo sapiens, UniProt Q9H9B1)
T1 sequence (Q9H9B1 1-1298): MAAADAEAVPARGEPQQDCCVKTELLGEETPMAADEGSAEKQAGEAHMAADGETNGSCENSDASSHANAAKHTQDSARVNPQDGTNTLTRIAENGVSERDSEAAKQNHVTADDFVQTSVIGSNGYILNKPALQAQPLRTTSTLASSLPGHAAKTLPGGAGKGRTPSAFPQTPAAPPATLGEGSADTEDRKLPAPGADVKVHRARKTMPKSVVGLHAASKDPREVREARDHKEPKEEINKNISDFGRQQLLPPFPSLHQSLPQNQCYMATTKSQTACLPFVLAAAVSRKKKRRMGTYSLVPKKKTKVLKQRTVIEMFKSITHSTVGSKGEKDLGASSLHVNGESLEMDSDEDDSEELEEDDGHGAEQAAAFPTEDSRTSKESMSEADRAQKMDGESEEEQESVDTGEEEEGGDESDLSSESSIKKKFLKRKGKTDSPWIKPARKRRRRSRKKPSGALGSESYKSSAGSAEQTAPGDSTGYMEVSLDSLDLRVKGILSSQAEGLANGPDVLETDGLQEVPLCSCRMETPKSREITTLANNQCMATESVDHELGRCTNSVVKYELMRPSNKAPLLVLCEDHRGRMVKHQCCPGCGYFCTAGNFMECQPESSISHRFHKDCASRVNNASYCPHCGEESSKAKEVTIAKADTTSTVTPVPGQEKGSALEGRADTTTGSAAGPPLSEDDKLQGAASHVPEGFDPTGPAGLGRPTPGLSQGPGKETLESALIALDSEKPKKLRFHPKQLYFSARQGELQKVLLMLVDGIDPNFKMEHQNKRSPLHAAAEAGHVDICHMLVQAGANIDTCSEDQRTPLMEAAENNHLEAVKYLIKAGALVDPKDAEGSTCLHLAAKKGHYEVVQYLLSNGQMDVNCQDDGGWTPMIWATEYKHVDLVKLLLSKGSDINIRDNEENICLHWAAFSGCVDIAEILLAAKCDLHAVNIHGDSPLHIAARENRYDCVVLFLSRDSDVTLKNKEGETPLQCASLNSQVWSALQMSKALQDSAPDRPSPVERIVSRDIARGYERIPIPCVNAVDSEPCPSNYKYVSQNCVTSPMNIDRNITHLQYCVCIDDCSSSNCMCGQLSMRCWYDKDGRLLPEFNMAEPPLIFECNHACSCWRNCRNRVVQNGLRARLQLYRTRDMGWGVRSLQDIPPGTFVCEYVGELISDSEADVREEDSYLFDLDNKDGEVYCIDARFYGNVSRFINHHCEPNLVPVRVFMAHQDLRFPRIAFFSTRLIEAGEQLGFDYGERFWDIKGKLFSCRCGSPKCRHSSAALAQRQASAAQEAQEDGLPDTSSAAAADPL
Assay: EHMT1 enzyme assay on peptide substrate (EHMT1 PEP)
Format: biochemical
Conditions: read-out: EHMT1 PEP (IC50 μM)

IC50	SMILES
< 0.1 µM	CNc1cc(C)nc(Nc2ccc(OC)c(OC[C@@H]3CCN(C4CC4)C3)c2)n1 (single isomer, unassigned) [Compound 481]
0.1 to 1 µM	CNc1cc(C)nc(Nc2ccc(OC)c(OC[C@H]3CCN(C4CC4)C3)c2)n1 (single isomer, unassigned) [Compound 482]
> 10 µM	CNc1ccnc(Nc2ccc(OC)c(OCCOC3CC3)c2)n1 [Compound 453, N^2-(3-(2-cyclopropoxyethoxy)-4-methoxyphenyl)-N^4-methylpyrimidine-2,4-diamine]
> 10 µM	CNc1cc(C)nc(Nc2ccc(OC)c(OC3CCN(C)CC3)c2)n1 [Compound 455]
1 to 10 µM	CNc1cc(C)nc(Nc2ccc(OC)c(OCC3CCN(C4CCCC4)C3)c2)n1 (stereo not shown) [Compound 456, N^2-(3-((1-cyclopentylpyrrolidin-3-yl)methoxy)-4-methoxyphenyl)-N^4,6-dimethylpyrimidine-2,4-diamine]
< 0.1 µM	CNc1cc(C)nc(Nc2ccc(OC)c(OCC3CCN(C4CC4)C3)c2)n1 (stereo not shown) [Compound 457]
0.1 to 1 µM	CNc1cc(C2CCCC2)nc(Nc2ccc(OC)c(OCCCN3CCCC3)c2)n1 [Compound 458, 6-cyclopentyl-N^2-(4-methoxy-3-(3-(pyrrolidin-1-yl)propoxy)phenyl)-N^4-methylpyrimidine-2,4-diamine]
1 to 10 µM	CNc1cc(C2CCOCC2)nc(Nc2ccc(OC)c(OCCCN3CCCC3)c2)n1 [Compound 459, N^2-(4-methoxy-3-(3-(pyrrolidin-1-yl)propoxy)phenyl)-N^4-methyl-6-(tetrahydro-2H-pyran-4-yl)pyrimidine-2,4-diamine]
< 0.1 µM	COc1cnc(Nc2nc(C)cc3[nH]ncc23)cc1OCCCN1CCCC1 [Compound 460, N-(5-methoxy-4-(3-(pyrrolidin-1-yl)propoxy)pyridine-2-yl)-6-methyl-1H-pyrazolo[4,3-c]pyridine-4-amine]
< 0.1 µM	CNc1cc(C)nc(Nc2ccc(OC)c(OCC3CCN(CCO)C3)c2)n1 (stereo not shown) [Compound 461, 2-(3-((2-methoxy-5-((4-methyl-6-(methylamino)pyrimidin-2-yl)amino)phenoxy)methyl)pyrrolidin-1-yl)ethan-1-ol]
< 0.1 µM	COc1ccc(Nc2nc(C)cc(NCC3CCOCC3)n2)cc1OCC1CCN(C2CC2)C1 (stereo not shown) [Compound 462, N^2-(3-((1-cyclopropylpyrrolidin-3-yl)methoxy)-4-methoxyphenyl)-6-methyl-N^4-((tetrahydro-2H-pyran-4-yl)methyl)pyrimidine-2,4-diamine]
< 0.1 µM	CNc1cc(C)nc(Nc2ccc(OC)c(OCCCN(C)C3CC3)c2)n1 [Compound 463, N^2-(3-(3-(cyclopropyl(methyl)amino)propoxy)-4-methoxyphenyl)-N^4,6-dimethylpyrimidine-2,4-diamine]
0.1 to 1 µM	COc1cnc(Nc2cc(NCC3CCOCC3)cc(C)n2)cc1OCCCN1CCCC1 [Compound 464, N^2-(5-methoxy-4-(3-(pyrrolidin-1-yl)propoxy)pyridin-2-yl)-6-methyl-N^4-((tetrahydro-2H-pyran-4-yl)methyl)pyridine-2,4-diamine]
< 0.1 µM	CNc1cc(C)nc(Nc2ccc(OC)c(OCCCN3CC(O)C3)c2)n1 [Compound 465, 1-(3-(2-methoxy-5-((4-methyl-6-(methylamino)pyrimidin-2-yl)amino)phenoxy)propyl)azetidin-3-ol]
> 10 µM	CNc1cc(C)nc(Nc2ccc(OC)c(OC3CCN(C4CC4)CC3)c2)n1 [Compound 466, N^2-(3-((1-cyclopropylpiperidin-4-yl)oxy)-4-methoxyphenyl)-N^4,6-dimethylpyrimidine-2,4-diamine]
0.1 to 1 µM	CNc1cc(C)nc(Nc2ccc(OC)c(OC[C@H]3C[C@@H](N(C)C)C3)c2)n1 [Compound 468]
1 to 10 µM	CNc1cc(C)nc(Nc2ccc(OC)c(OC[C@H]3C[C@H](N(C)C)C3)c2)n1 [Compound 470]
1 to 10 µM	CCn1nc(Nc2nccc3[nH]ccc23)cc1COCCN1CCCC1 [Compound 471]
0.1 to 1 µM	CNc1cc(Nc2cc(OC[C@@H]3CCN(C)C3)c(OC)cn2)nc(C)n1 [Compound 473]
< 0.1 µM	CNc1cc(C)nc(Nc2cc(OC[C@@H]3CCN(C)C3)c(OC)cn2)c1 [Compound 475]
0.1 to 1 µM	CNc1ccnc(Nc2ccc(OC)c(OC[C@@H]3CN(C)C[C@@H]3C)c2)n1 [Compound 477]
> 10 µM	CNc1ccnc(Nc2ccc(OC)c(OCc3nnc(C4CC4)[nH]3)c2)n1 [Compound 478]
> 10 µM	CNc1ccnc(Nc2ccc(OC)c(OCc3ncn(C4CC4)n3)c2)n1 [Compound 480]
< 0.1 µM	CNc1cc(C(C)C)nc(Nc2ccc(OC)c(OCCCN3CCCC3)c2)n1 [Compound 483]
< 0.1 µM	COc1cnc(Nc2nc(C)cc3[nH]c(C)cc23)cc1OCCCN1CCCC1 [Compound 485]
> 10 µM	COc1ccc(Nc2nc(C)cc3[nH]ccc23)cc1OCCCN1CCCC1 [Compound 486]

IC50	SMILES
0.1 to 1 µM	CNc1cc(C)nc(Nc2ccc(OC)c([C@H]3C[C@@H]3CN(C)C)c2)n1 [Compound 487]
< 0.1 µM	CNc1cc(C)nc(Nc2ccc(OC)c([C@H]3C[C@H]3CN(C)C)c2)n1 [Compound 488]
0.1 to 1 µM	CNc1cc(C)nc(Nc2ccc(OC)c(OC(C#N)CCN3CCCC3)c2)n1 (stereo not shown) [Compound 489]
< 0.1 µM	CNc1cc(C)nc(Nc2ccc(OC)c(OCCCN3CCC3)c2)n1 [Compound 490]
< 0.1 µM	CNc1cc(C)nc(Nc2ccc(OC)c(OC[C@@H]3CN(C)C[C@H]3O)c2)n1 [Compound 491]
< 0.1 µM	CNc1cc(C)nc(Nc2ccc(OC)c(OC[C@@H]3CN(C)C[C@@H]3O)c2)n1 [Compound 492]
< 0.1 µM	COc1cnc(Nc2nc(C)cc3[nH]ccc23)cc1OCC1CCN(C2CC2)C1 (stereo not shown) [Compound 494]
< 0.1 µM	COc1cnc(Nc2nc(C)cc3[nH]ccc23)cc1OC[C@H]1CCN(C2CC2)C1 [Compound 494a]
< 0.1 µM	COc1cnc(Nc2nc(C)cc3[nH]ccc23)cc1OC[C@@H]1CCN(C2CC2)C1 [Compound 495]
0.1 to 1 µM	CNc1cc(C)nc(Nc2cc(Cl)c(OC)c(OCCCN3CCCC3)c2)n1 [Compound 496]
0.1 to 1 µM	CCc1ccc(Nc2nc(C)cc(NC)n2)cc1OCCCN1CCCC1 [Compound 497]
0.1 to 1 µM	CNc1cc(C)nc(Nc2ccc(OC)c(OCCCN3CCC4(CC4)C3)c2)n1 [Compound 498, N^2-(3-(3-(5-azaspiro[2.4]heptan-5-yl)propoxy)-4-methoxyphenyl)-N^4,6-dimethylpyrimidine-2,4-diamine]
0.1 to 1 µM	CNc1cc(C)nc(Nc2ccc(OC)c(OCCCCN(C)C)c2)n1 [Compound 502]
1 to 10 µM	CNc1cc(C)nc(Nc2ccc(OC)c(OCCC3CCN(C)C3)c2)n1 (stereo not shown) [Compound 503]
0.1 to 1 µM	CNc1cc(C)nc(Nc2ccc(OC)c(OCCCN3CCCC3C)c2)n1 (stereo not shown) [Compound 504, N^2-(4-methoxy-3-(3-(2-methylpyrrolidin-1-yl)propoxy)phenyl)-N^4,6-dimethylpyrimidine-2,4-diamine]
< 0.1 µM	CNc1cc(C)nc(Nc2ccc(OC)c(OCCCN3CC4CC4C3)c2)n1 (stereo not shown) [Compound 506]
< 0.1 µM	COc1cnc(Nc2nccc3[nH]ccc23)cc1OCCCN1CC2CC2C1 (stereo not shown) [Compound 507]
1 to 10 µM	CNc1cc(C)nc(Nc2ccc(OC)c(OCCC3CN(C)C3)c2)n1 [Compound 508]
< 0.1 µM	CNc1cc(Nc2cc(OCCCN3CC4CC4C3)c(OC)cn2)nc(C)c1F (stereo not shown) [Compound 509]
< 0.1 µM	CNc1cc(C)nc(Nc2ccc(OC)c(OCC3CN(C4CC4)C3)c2)n1 [Compound 510]
< 0.1 µM	CNc1cc(C)nc(Nc2cnc(OC)c(OC[C@@H]3CCN(C4CC4)C3)c2)n1 [Compound 512]
< 0.1 µM	CNc1cc(C)nc(Nc2cnc(OC)c(OCCCN3CC4CC4C3)c2)n1 (stereo not shown) [Compound 514]
1 to 10 µM	CCc1ncc(Nc2nc(C)cc(NC)n2)cc1OCCCN1CCCC1 [Compound 515]
1 to 10 µM	CNc1cc(C)nc(Nc2cnc(C3CC3)c(OCCCN3CCCC3)c2)n1 [Compound 516]
0.1 to 1 µM	CNc1cc(C)nc(Nc2ccc(OC)c(OCC3CCCN(C4CC4)C3)c2)n1 (stereo not shown) [Compound 517a]
0.1 to 1 µM	CNc1cc(C)nc(Nc2ccc(OC)c(OC[C@H]3CCCN(C4CC4)C3)c2)n1 [Compound 517b]
